Measured values taken from patent US5077204A, “Yeast endopeptidase for basic amino-acid site cleavage, preparation and use” (Chiron Corporation, priority 1988, dated 1991).
Peptide text beside a SMILES is read from it. * marks the point of attachment. AMC = Cc1cc(=O)oc2cc(N*)ccc12; βNA = c1ccc2cc(N*)ccc2c1; Cbz = O=C(OCc1ccccc1)*; Boc = CC(C)(C)OC(=O)*

Tests used:
Type in all cases: biochemical, S. cerevisiae
[1] = tested on: background activity in membranes of kex2[YEp24] cells; experiment: Endopeptidase activity in membranes from kex2 cells transformed with the vector YEp24 alone (background activity)
Protocol: (§1) Permeabilization of whole yeast cells with the non-ionic detergent Brij 58, preparation of crude membrane fractions, and measurement of protein concentration were conducted by the methods described previously (Julius et al., 1983, supra), incorporated herein by reference. To measure peptidase activity, samples of permeabilized cells or membrane material were added to a reaction mixture containing 0.1-0.5 mM fluorogenic peptide substrate (added from a 20 mM stock dissolved in DMSO) and 200 mM HEPES-Tris (pH 7.0), in a final volume of 0.4 ml. Following incubation for 30 min at 37° C., whole cells were removed by centrifugation in a microfuge (Eppendorf) and membrane material was removed by Ba(OH)2 -ZnSO4 precipitation. The amount of fluorescence formed in the supernatant solution was determined in a fluorescence spectrophotometer (Perkin-Elmer, Model MPF-44B), set either at an excitation wavelength of 335 nm and an emission wavelength of 410 nm (for measurement of β-naphthylamine) or at an excitation wavelength of 380 nm and an emission wavelength of 460 nm (for measurement of 7-amino-4-methyl-coumarin, AMC). To determine the number of moles of substrate hydrolyzed, the fluorescence yield of samples was compared to a standard curve prepared with known concentrations of authentic AMC dissolved in the same buffer.
(§2) Cells of strain XBH1615A that had been transformed with the plasmids
(§3) indicated, or that contained pJ2B in integrated form, were grown in SCUra
(§4) and membranes were prepared as described in the Experimental.
(§5) Endopeptidase activity was assayed as described in the Experimental. All
(§6) substrates tested were present at 0.1 mM.
(§7) Endopeptidase activity was assayed using Boc--GlnArgArg--MCA as the
(§8) substrate, as outlined in the Experimental. All inhibitors were added fro
(§9) a 0.1 M stock dissolved in dimethyl sulfoxide. All values given were
(§10) corrected for the slight effects of addition of this solvent alone.

[2] = molecular target: T1, KEX2 endopeptidase (kex2[YEp24-pJ2B] membranes) (Saccharomyces cerevisiae, UniProt P13134); experiment: Endopeptidase activity in membranes from kex2 cells carrying multicopy plasmid pJ2B (over-produced specific endopeptidase); settings: for Relative Ratio: kex2[YEp24-pJ2B] relative to kex2[YEp24] = [1.0]; for Rate of hydrolysis, membranes from kex2 cells carrying pJ2B versus membranes from kex2 cells carrying YEp24: membrane fractions, depending on the experiment
T1 construct: not only includes the KEX2 gene, but also the necessary transcriptional and translational regulatory signals for expression in yeast; expressed in transfected cells; host or cells: S. cerevisiae XBH16-15A (MATalpha kex2-1) carrying YEp24-pJ2B
T1 sequence (P13134 114-814): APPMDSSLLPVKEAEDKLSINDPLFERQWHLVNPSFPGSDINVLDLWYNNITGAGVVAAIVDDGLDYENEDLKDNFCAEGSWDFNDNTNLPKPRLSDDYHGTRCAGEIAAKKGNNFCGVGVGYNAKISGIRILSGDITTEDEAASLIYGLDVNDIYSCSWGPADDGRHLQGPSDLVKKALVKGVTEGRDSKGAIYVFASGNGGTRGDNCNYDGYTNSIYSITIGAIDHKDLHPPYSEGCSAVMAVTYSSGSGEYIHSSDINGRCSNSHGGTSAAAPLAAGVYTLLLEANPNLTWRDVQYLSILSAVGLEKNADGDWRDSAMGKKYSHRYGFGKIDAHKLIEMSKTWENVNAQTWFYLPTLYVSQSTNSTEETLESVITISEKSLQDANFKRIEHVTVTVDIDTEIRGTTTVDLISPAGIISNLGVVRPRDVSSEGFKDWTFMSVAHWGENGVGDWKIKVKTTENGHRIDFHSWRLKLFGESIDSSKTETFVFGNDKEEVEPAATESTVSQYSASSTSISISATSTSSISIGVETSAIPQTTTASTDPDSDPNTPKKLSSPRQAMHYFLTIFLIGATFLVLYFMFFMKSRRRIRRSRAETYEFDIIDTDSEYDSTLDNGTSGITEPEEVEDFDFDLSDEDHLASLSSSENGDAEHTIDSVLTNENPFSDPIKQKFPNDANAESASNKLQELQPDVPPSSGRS
Protocol: as §1, §2, §3, §4, §5, §6, §7, §8
a 0.1 M stock dissolved in dimethyl sulfoxide.

[3] = molecular target: T2, KEX2 endopeptidase (kex2::pJ2B membranes) (Saccharomyces cerevisiae, UniProt P13134); experiment: Endopeptidase activity in membranes from kex2 cells containing pJ2B in integrated form; settings: for Relative Ratio: kex2::pJ2B relative to kex2[YEp24] = [1.0]
T2 construct: not only includes the KEX2 gene, but also the necessary transcriptional and translational regulatory signals for expression in yeast; expressed in transfected cells; host or cells: S. cerevisiae XBH16-15A (MATalpha kex2-1) containing pJ2B in integrated form; crude membranes
Protocol: as §1, §2, §3, §4, §5, §6, §7, §8, §9, §10

[4] = molecular target: T3, KEX2 endopeptidase (Brij 58-permeabilized kex2 cells carrying pJ2B) (Saccharomyces cerevisiae, UniProt P13134); experiment: Peptidase activity in detergent-permeabilized kex2 cells carrying pJ2B; settings: for Rate of hydrolysis, kex2 cells carrying pJ2B versus kex2 cells harboring the vector alone: detergent-permeabilized cells; for Rate of hydrolysis relative to the lysine-containing substrate (Boc-GluLysLys-MCA), times faster: detergent-permeabilized kex2 cells carrying pJ2B
T3 construct: not only includes the KEX2 gene, but also the necessary transcriptional and translational regulatory signals for expression in yeast; expressed in transfected cells; host or cells: S. cerevisiae XBH16-15A (MATalpha kex2-1) carrying YEp24-pJ2B
Protocol: as §1

[5] = molecular target: T4, KEX2 endopeptidase (lysate of XBH16-15A carrying YEp24-pJ2B) (Saccharomyces cerevisiae, UniProt P13134); experiment: Release of endopeptidase activity from membranes by detergent treatment
T4 construct: not only includes the KEX2 gene, but also the necessary transcriptional and translational regulatory signals for expression in yeast; expressed in transfected cells; host or cells: S. cerevisiae XBH16-15A (MATalpha kex2-1) carrying YEp24-pJ2B
Protocol: as §1
Strain XBH1615A carrying the KEX2 gene on a multicopy plasmid (YEp24pJ2B)
was grown to midexponential phase in SCUra. The cells were collected by
centrifugation and a lysate was prepared as described in the Experimental
The lysate was divided into two equal portions, one of which was treated
with the nonionic detergent Triton X100 at a final concentration of 1%.
Samples of both the original lysate and the detergenttreated lysate were
saved and the remainder of each was separated into a crude membrane
fraction (P100) and a soluble fraction (S100) by centrifugation at 100,00
× g for 1 hr for endopeptidase activity using
Boc--GlnArgArg--MCA as the substrate, as given in the Experimental.

[6] = strain kex2[YEp24], substrate 0.1 mM, membranes
[7] = strain kex2[YEp24-pJ2B], substrate 0.1 mM, membranes
[8] = strain kex2::pJ2B, substrate 0.1 mM, membranes
[9] = kex2[YEp24], Triton X-100 1% + 5 mM TPCK, substrate Boc-GlnArgArg-MCA
[10] = kex2[YEp24], Triton X-100 1%, substrate Boc-GlnArgArg-MCA
[11] = kex2[YEp24-pJ2B], Triton X-100 1% + 5 mM TPCK, substrate Boc-GlnArgArg-MCA
[12] = kex2[YEp24-pJ2B], Triton X-100 1%, substrate Boc-GlnArgArg-MCA
[13] = kex2::pJ2B, Triton X-100 1% + 5 mM TPCK, substrate Boc-GlnArgArg-MCA
[14] = kex2::pJ2B, Triton X-100 1%, substrate Boc-GlnArgArg-MCA
[15] = +1% Triton X-100, P100 crude membrane fraction
[16] = +1% Triton X-100, S100 soluble fraction

For `Cc1cc(=O)oc2cc(NC(=O)[C@H](CCCNC(=N)N)NC(=O)[C@H](CCCNC(=N)N)NC(=O)[C@H](CCC(N)=O)NC(=O)OC(C)(C)C)ccc12` [Boc--GlnArgArg--MCA, Boc-GlnArgArg-7-amino-4-methyl-coumarin] (Boc-Gln-Arg-Arg-{AMC}), the “Specific Activity” value [1, 6] was 5.0 pmoles AMC formed/μg protein 10, the “Relative Ratio” value ([2]; substrate 0.1 mM) was 20.2 and the “Rate of hydrolysis, membranes from kex2 cells carrying pJ2B versus membranes from kex2 cells carrying YEp24” value [2] was 20- to 35 fold. The “Specific Activity” value [2, 7] was 100.8 pmoles AMC formed/μg protein 10, the “Relative Ratio” value ([3]; substrate 0.1 mM) was 3.3 and the “Specific Activity” value [3, 8] was 16.7 pmoles AMC formed/μg protein 10. For the same compound, the “Rate of hydrolysis, kex2 cells carrying pJ2B versus kex2 cells harboring the vector alone” value [4] was “six- to ninefold greater” and the “Rate of hydrolysis relative to the lysine-containing substrate (Boc-GluLysLys-MCA), times faster” value [4] was ~30 times.

In the case of `Cc1cc(=O)oc2cc(NC(=O)[C@H](CCCCN)NC(=O)[C@H](CCCCN)NC(=O)[C@H](CCC(=O)O)NC(=O)OC(C)(C)C)ccc12` [Boc--GluLysLys--MCA, Boc-GluLysLys-MCA] (Boc-Glu-Lys-Lys-{AMC}), the “Specific Activity” value [1, 6] is reported as 0.3 pmoles AMC formed/μg protein 10, the “Relative Ratio” value ([2]; substrate 0.1 mM) is reported as 6.3 and the “Rate of hydrolysis relative to Boc-GlnArgArg-MCA, times more slowly” value ([2]; membrane fractions of kex2 cells carrying pJ2B) is reported as “about 50 times”. The “Rate of hydrolysis, membranes from kex2 cells carrying pJ2B versus membranes from kex2 cells carrying YEp24” value [2] was “about six-fold”, the “Specific Activity” value [2, 7] was 1.9 pmoles AMC formed/μg protein 10 and the “Relative Ratio” value ([3]; substrate 0.1 mM) was 1.7. For the same compound, the “Specific Activity” value [3, 8] was 0.5 pmoles AMC formed/μg protein 10 and the “Rate of hydrolysis, kex2 cells carrying pJ2B versus kex2 cells harboring the vector alone” value [4] was “six- to ninefold greater”.

For `C[C@H](NC(=O)OCc1ccccc1)C(=O)N[C@@H](CCCNC(=N)N)C(=O)N[C@@H](CCCNC(=N)N)C(=O)Nc1ccc2ccccc2c1` [CBZ-AlaArgArg-β-naphthylamide] (Cbz-Ala-Arg-Arg-βNA), the “Rate of hydrolysis, kex2 cells carrying pJ2B versus kex2 cells harboring the vector alone” value [4] was “six- to ninefold greater” and the “Rate of hydrolysis relative to the lysine-containing substrate (Boc-GluLysLys-MCA), times faster” value [4] was ~30 times.

Triton X-100 was tested, and the Inhibition [1, 9] was 76%, the “Specific Activity” value [1, 9] was 1.2 pmoles/μg/10 min and the Inhibition [1, 10] was 71%. The “Specific Activity” value [1, 10] was 1.5 pmoles/μg/10 min, the “Susceptibility of the background activity to inhibition” value ([1]; kex2 cells transformed with YEp24 alone) was “greatly reduced” and the “Relative Ratio” value ([2]; Triton X-100 1% + 5 mM TPCK) was 127.4. The Inhibition [2, 11] was 0%, the “Specific Activity” value [2, 11] was 152.9 pmoles/μg/10 min and the Inhibition [2, 12] was 0%. The “Specific Activity” value [2, 12] was 155.0 pmoles/μg/10 min, the “Susceptibility of the specific KEX2 endopeptidase to inhibition or inactivation” value ([2]; kex2 cells transformed with plasmid pJ2B, comparisons are to the background activity) was “slightly activated” and the “Relative Ratio” value ([3]; Triton X-100 1% + 5 mM TPCK) was 9.4. For the same compound, the Inhibition [3, 13] was 34%, the “Specific Activity” value [3, 13] was 11.4 pmoles/μg/10 min and the Inhibition [3, 14] was 26%. The “Specific Activity” value [3, 14] was 12.9 pmoles/μg/10 min, the “% of Recovery” value ([5]; +1% Triton X-100, P100 + S100) was 94% and the “% of Total” value [5, 15] was 19%. The “Specific Activity” value [5, 15] was 50.0 pmoles/μg/10 min, the “% of Total” value [5, 16] was 75% and the “Specific Activity” value [5, 16] was 200.0 pmoles/μg/10 min. For the same compound, the “Specific Activity” value ([5]; +1% Triton X-100, whole lysate, substrate Boc-GlnArgArg-MCA) was 265.0 pmoles/μg/10 min and the “Solubilization of the specific KEX2 endopeptidase from membranes” value ([5]; Triton X-100 at final concentration of 1%) was “readily solubilized from membranes”.
